Results on 27 compounds are retold here after patent US8618152B2, “Inhibitors of serine proteases, particularly HCV NS3-NS4A proteases” (Vertex Pharmaceuticals Incorporated, priority 2003, dated 2013).

*1 amine or outer side, *2 acyl side, *3 side chain or, on linkers, in order; H or OH if unused. Where a SMILES comes first, the peptide text is derived from it. [ ]: non-standard residue; d: D form. The star is where a group is joined. ξ: configuration not given here. Pro(trans-3-iPr) = CC(C)[C@H]1CCN[C@@H]1C(=O)O; Pro(3S-Et) = CC[C@H]1CCN[C@@H]1C(=O)O; Phe(2-Me) = Cc1ccccc1C[C@H](N)C(=O)O; Pyrazinecarbonyl = O=C(c1cnccn1)*; X1 = CCCC(N[*:1])C(=O)C(=O)[*:2]; Ile(3ξ) = CCC(C)[C@H](N)C(=O)O; aThr = C[C@H](O)[C@H](N)C(=O)O; Chg = N[C@H](C(=O)O)C1CCCCC1; Tle = CC(C)(C)[C@H](N)C(=O)O

Sequence of HCV NS3-NS4A protease (tNS3 with KK4A) (P27958 1027-1208): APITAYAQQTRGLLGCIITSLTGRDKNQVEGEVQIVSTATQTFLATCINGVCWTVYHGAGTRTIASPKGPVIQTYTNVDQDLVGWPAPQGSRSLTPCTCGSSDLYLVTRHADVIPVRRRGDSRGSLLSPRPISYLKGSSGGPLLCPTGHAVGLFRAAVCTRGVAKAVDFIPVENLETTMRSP

In one test the test system is Cells containing hepatitis C virus (HCV) replicon. Nature of the test: HCV replicon cell assay. Type of test: cell-based. The conditions noted are these: 50% inhibition of HCV RNA level, 48-hour incubation, Taqman real-time RT-PCR, read-out: IC50. As for the experimental part: HCV Replicon Cell Assay Protocol
Cells containing hepatitis C virus (HCV) replicon were maintained in DMEM containing 10% fetal bovine serum (FBS), 0.25 mg per ml of G418, with appropriate supplements (media A).
On day 1, replicon cell monolayer was treated with a trypsin:EDTA mixture, removed, and then media A was diluted into a final concentration of 100,000 cells per ml with. 10,000 cells in 100 ul were plated into each well of a 96-well tissue culture plate, and cultured overnight in a tissue culture incubator at 37° C.
On day 2, compounds (in 100% DMSO) were serially diluted into DMEM containing 2% FBS, 0.5% DMSO, with appropriate supplements (media B). The final concentration of DMSO was maintained at 0.5% throughout the dilution series.
Media on the replicon cell monolayer was removed, and then media B containing various concentrations of compounds was added. Media B without any compound was added to other wells as no compound controls.
Cells were incubated with compound or 0.5% DMSO in media B for 48 hours in a tissue culture incubator at 37° C. At the end of the 48-hour incubation, the media was removed, and the replicon cell monolayer was washed once with PBS and stored at −80° C. prior to RNA extraction.
Culture plates with treated replicon cell monolayers were thawed, and a fixed amount of another RNA virus, such as Bovine Viral Diarrhea Virus (BVDV) was added to cells in each well. RNA extraction reagents (such as reagents from RNeasy kits) were added to the cells immediately to avoid degradation of RNA. Total RNA was extracted according the instruction of manufacturer with modification to improve extraction efficiency and consistency. Finally, total cellular RNA, including HCV replicon RNA, was eluted and stored at −80° C. until further processing.
A Taqman real-time RT-PCR quantification assay was set up with two sets of specific primers and probe. One was for HCV and the other was for BVDV. Total RNA extractants from treated HCV replicon cells was added to the PCR reactions for quantification of both HCV and BVDV RNA in the same PCR well. Experimental failure was flagged and rejected based on the level of BVDV RNA in each well. The level of HCV RNA in each well was calculated according to a standard curve run in the same PCR plate. The percentage of inhibition or decrease of HCV RNA level due to compound treatment was calculated using the DMSO or no compound control as 0% of inhibition. The IC50 (concentration at which 50% inhibition of HCV RNA level is observed) was calculated from the titration curve of any given compound.
For orientation: Replicon systems follow genome replication, usually without infectious particles.
As a reminder, the IC50 is the concentration that inhibits the measured activity by half. In the case of `CCC[C@H](NC(=O)[C@@H]1[C@@H](Cc2ccccc2)CCN1C(=O)[C@@H](NC(=O)[C@@H](NC(=O)c1cnccn1)C1CCCCC1)C(C)(C)C)C(=O)C(=O)NC1CC1` [Compound 77], the IC50 was greater than 1000 nM.
The same measure, in the same setting: to `CCCC(NC(=O)[C@@H]1[C@@H](CC)CCN1C(=O)[C@@H](NC(=O)[C@@H](NC(=O)c1cnccn1)C(c1ccccc1)c1ccccc1)C(C)C)C(=O)C(=O)NC1CC1` (stereo partly shown) [Compound 60] belongs greater than 1000 nM.

For a further test, the target named is HCV NS3-NS4A protease (tNS3 with KK4A) (Hepatitis C virus genotype 1a, UniProt P27958). Nature of the test: HCV Ki assay (HPLC microbore separation of 5AB substrate and products). The conditions noted are these: 25 nM tNS3, 25 μM KK4A, 25 μM 5AB substrate, 20 min at 30 C; read-out: Ki. The format is biochemical. As for the experimental part:
HPLC Microbore Method for Separation of 5AB Substrate and Products
Substrate: NH2-Glu-Asp-Val-Val-(alpha)Abu-Cys-Ser-Met-Ser-Tyr-COOH
A stock solution of 20 mM 5AB (or concentration of your choice) was made in DMSO w/0.2M DTT. This was stored in aliquots at −20 C.
Buffer: 50 mM HEPES, pH 7.8; 20% glycerol; 100 mM NaCl
Total assay volume was 100 μL
The buffer, KK4A, DTT, and tNS3 were combined; distributed 78 μL each into wells of 96 well plate. This was incubated at 30 C for ˜5-10 min.
2.5 μL of appropriate concentration of test compound was dissolved in DMSO (DMSO only for control) and added to each well. This was incubated at room temperature for 15 min.
Initiated reaction by addition of 20 μL of 250 μM 5AB substrate (25 μM concentration is equivalent or slightly lower than the Km for 5AB).
Incubated for 20 min at 30 C.
Terminated reaction by addition of 25 μL of 10% TFA
Transferred 120 μL aliquots to HPLC vials
Separated SMSY product from substrate and KK4A by the following method:
Microbore Separation Method:
Instrumentation: Agilent 1100
Column thermostated chamber G1316A
Diode array detector G1315A
Solvent A=HPLC grade water+0.1% TFA
Solvent B=HPLC grade acetonitrile+0.1% TFA
Stop time: 17 min Post-run time: 10 min.
The term Ki denotes a measure of affinity in units of concentration, obtained from inhibition or displacement. As to `CCC[C@H](NC(=O)[C@@H]1[C@@H](Cc2ccccc2)CCN1C(=O)[C@@H](NC(=O)[C@@H](NC(=O)c1cnccn1)C1CCCCC1)C(C)(C)C)C(=O)C(=O)NC1CC1` [Compound 77], the Ki was 100 to 500 nM.
Still for that read-out and setting: next, `CCCC(NC(=O)[C@@H]1[C@@H](CC)CCN1C(=O)[C@@H](NC(=O)[C@@H](NC(=O)c1cnccn1)C1CCCCC1)C(C)CC)C(=O)C(=O)N[C@@H](Cc1ccccc1)C(=O)O` (stereo partly drawn) [Compound 29] (Pyrazinecarbonyl-[Chg][Ile(3ξ)][Pro(3S-Et)][X1]F-OH): less than 100 nM; `CCCC(NC(=O)[C@@H]1[C@@H](CC)CCN1C(=O)[C@@H](NC(=O)[C@@H](NC(=O)c1cnccn1)C1CCCCC1)C1CCCCC1)C(=O)C(=O)N[C@@H](Cc1ccccc1)C(=O)O` (stereo partly drawn) [Compound 42] (Pyrazinecarbonyl-[Chg][Chg][Pro(3S-Et)][X1]F-OH): less than 100 nM; `CCCC(NC(=O)[C@@H]1[C@@H](CC2CC2)CCN1C(=O)[C@@H](NC(=O)[C@@H](NC(=O)c1cnccn1)C(C)C)C(C)C)C(=O)C(=O)N[C@@H](Cc1ccccc1)C(=O)O` (stereo partly shown) [Compound 20]: 100 to 500 nM.
Still for that read-out and setting: next, `CCCC(NC(=O)[C@@H]1[C@@H](CC)CCN1C(=O)[C@@H](NC(=O)[C@@H](NC(=O)c1cnccn1)C(C)C)[C@@H](C)OC)C(=O)C(=O)N[C@@H](Cc1ccccc1)C(=O)O` (stereo partly drawn) [Compound 35] (Pyrazinecarbonyl-VT(Me)[Pro(3S-Et)][X1]F-OH): greater than 500 nM.
The same measure, in the same setting: to `CCCC(NC(=O)[C@@H]1[C@@H](CC)CCN1C(=O)[C@@H](NC(=O)[C@@H](NC(=O)c1cnccn1)C(C)C)[C@H](C)OC)C(=O)C(=O)N[C@@H](Cc1ccccc1)C(=O)O` (stereo partly drawn) [Compound 33] (Pyrazinecarbonyl-V[aThr](Me)[Pro(3S-Et)][X1]F-OH) belongs 100 to 500 nM; to `CCCC(NC(=O)[C@@H]1[C@@H](CC)CCN1C(=O)[C@@H](NC(=O)[C@@H](NC(=O)c1cnccn1)C1CCCCC1)C(C)C)C(=O)C(=O)N[C@@H](C)c1ccccc1` (stereo partly shown) [Compound 43], 100 to 500 nM.
Take `CCCC(NC(=O)[C@@H]1[C@@H](CC)CCN1C(=O)[C@@H](NC(=O)[C@@H](NC(=O)c1ncc[nH]1)C1CCCCC1)C(C)C)C(=O)C(=O)NC1CC1` (stereo partly shown) [Compound 53]: the Ki lay within 100 to 500 nM.
Still for that read-out and setting: next, `CCCC(NC(=O)[C@@H]1[C@@H](CC)CCN1C(=O)[C@@H](NC(=O)[C@@H](NC(=O)c1cnccn1)C1CCCCC1)C(C)C)C(=O)C(=O)NC1CC1` (stereo partly shown) [Compound 45]: greater than 500 nM.
On the same count and under the same terms, next, `CCCC(NC(=O)[C@@H]1[C@@H](CC)CCN1C(=O)[C@@H](NC(=O)[C@@H](NC(=O)c1cnccn1)C(C)C)[C@@H](C)OCC)C(=O)C(=O)N[C@@H](Cc1ccccc1)C(=O)O` (stereo partly drawn) [Compound 36] (Pyrazinecarbonyl-VT(Et)[Pro(3S-Et)][X1]F-OH): 100 to 500 nM.
As to `CCCC(NC(=O)[C@@H]1[C@@H](CC)CCN1C(=O)[C@@H](NC(=O)[C@@H](NC(=O)c1cnccn1)C1CCCCC1)C(C)CC)C(=O)C(=O)NC1CC1` (stereo partly shown) [Compound 25], the Ki is 100 to 500 nM.
Same read-out and setting: to `CCCC(NC(=O)[C@@H]1[C@@H](CC)CCN1C(=O)[C@@H](NC(=O)[C@@H](NC(=O)c1cnccn1)C1CCCCC1)C1CCCCC1)C(=O)C(=O)N[C@@H](C)c1ccccc1` (stereo partly shown) [Compound 50] belongs 100 to 500 nM; to `CCCC(NC(=O)[C@@H]1[C@@H](CC)CCN1C(=O)[C@@H](NC(=O)[C@@H](NC(=O)c1cnccn1)C1CCCCC1)C(C)CC)C(=O)C(=O)N[C@@H](C)c1ccccc1` (stereo partly shown) [Compound 51], 100 to 500 nM; to `CCCC(NC(=O)[C@@H]1[C@@H](C)CCN1C(=O)[C@@H](NC(=O)[C@@H](NC(=O)c1cnccn1)C(C)C)C(C)C)C(=O)C(=O)N[C@@H](Cc1ccccc1)C(=O)O` (stereo partly shown) [Compound 22], 100 to 500 nM.
On the same count and under the same terms, to `CCCC(NC(=O)[C@@H]1[C@@H](CC)CCN1C(=O)[C@@H](NC(=O)[C@@H](NC(=O)c1cnccn1)C1CCCCC1)C(C)C)C(=O)C(=O)N[C@@H](Cc1ccccc1)C(=O)O` (stereo partly drawn) [Compound 26] (Pyrazinecarbonyl-[Chg]V[Pro(3S-Et)][X1]F-OH) belongs less than 100 nM; to `CCCC(NC(=O)[C@@H]1[C@@H](CC)CCN1C(=O)[C@@H](NC(=O)[C@H](CC(C)C)NC(=O)c1cnccn1)C(C)C)C(=O)C(=O)N[C@@H](Cc1ccccc1)C(=O)O` (stereo partly drawn) [Compound 28] (Pyrazinecarbonyl-LV[Pro(3S-Et)][X1]F-OH), less than 100 nM; to `C=C[C@H]1CCN(C(=O)[C@@H](NC(=O)[C@@H](NC(=O)c2cnccn2)C(C)C)C(C)C)[C@@H]1C(=O)NC(CCC)C(=O)C(=O)N[C@@H](Cc1ccccc1)C(=O)O` (stereo partly shown) [Compound 19], 100 to 500 nM.
On the same count and under the same terms, next, `CCCC(NC(=O)[C@@H]1[C@@H](CC)CCN1C(=O)[C@@H](NC(=O)[C@@H](NC(=O)c1cnccn1)C(C)C)C1CCCCC1)C(=O)C(=O)N[C@@H](Cc1ccccc1)C(=O)O` (stereo partly drawn) [Compound 32] (Pyrazinecarbonyl-V[Chg][Pro(3S-Et)][X1]F-OH): 100 to 500 nM; `CCCC(NC(=O)[C@@H]1[C@@H](CC)CCN1C(=O)[C@@H](NC(=O)[C@@H](NC(=O)c1cnccn1)C(C)C)C(C)(C)C)C(=O)C(=O)N[C@@H](Cc1ccccc1)C(=O)O` (stereo partly drawn) [Compound 31] (Pyrazinecarbonyl-V[Tle][Pro(3S-Et)][X1]F-OH): less than 100 nM.
For the compound `CCCC(NC(=O)[C@@H]1[C@@H](C(C)CC)CCN1C(=O)[C@@H](NC(=O)[C@@H](NC(=O)c1cnccn1)C(C)C)C(C)C)C(=O)C(=O)N[C@@H](Cc1ccccc1)C(=O)O` (stereo partly shown) [Compound 57], the Ki was less than 100 nM.
With `CCCC(NC(=O)[C@@H]1[C@@H](CC)CCN1C(=O)[C@@H](NC(=O)[C@@H](NC(=O)c1cnccn1)C(C)C)C(C)CC)C(=O)C(=O)N[C@@H](Cc1ccccc1)C(=O)O` (stereo partly drawn) [Compound 30] (Pyrazinecarbonyl-V[Ile(3ξ)][Pro(3S-Et)][X1]F-OH), the Ki lay in the range of 100 to 500 nM.
Same read-out and setting: next, `CCCC(NC(=O)[C@@H]1[C@@H](CC)CCN1C(=O)[C@@H](NC(=O)[C@@H](NC(=O)c1cnccn1)C1CCCCC1)C1CCCCC1)C(=O)C(=O)NC1CC1` (stereo partly shown) [Compound 46]: 100 to 500 nM; `CCCC(NC(=O)[C@@H]1[C@@H](CC)CCN1C(=O)[C@@H](NC(=O)[C@H](Cc1ccccc1C)NC(=O)c1cnccn1)C(C)C)C(=O)C(=O)N[C@@H](Cc1ccccc1)C(=O)O` (stereo partly drawn) [Compound 27] (Pyrazinecarbonyl-[Phe(2-Me)]V[Pro(3S-Et)][X1]F-OH): less than 100 nM; `CCCC(NC(=O)[C@@H]1[C@@H](C(=O)OC)CCN1C(=O)[C@@H](NC(=O)[C@@H](NC(=O)c1cnccn1)C(C)C)C(C)C)C(=O)C(=O)N[C@@H](Cc1ccccc1)C(=O)O` (stereo partly shown) [Compound 15]: 100 to 500 nM.
The same measure, in the same setting: to `CCCC(NC(=O)[C@@H]1[C@@H](C(C)C)CCN1C(=O)[C@@H](NC(=O)[C@@H](NC(=O)c1cnccn1)C(C)C)C(C)C)C(=O)C(=O)N[C@@H](Cc1ccccc1)C(=O)O` (stereo partly drawn) [Compound 16] (Pyrazinecarbonyl-VV[Pro(trans-3-iPr)][X1]F-OH) belongs 100 to 500 nM.
On the same count and under the same terms, to `CCCC(NC(=O)[C@@H]1C(CC)CCN1C(=O)[C@@H](NC(=O)[C@@H](NC(=O)c1cnccn1)C(C)C)C(C)C)C(=O)C(=O)N[C@@H](Cc1ccccc1)C(=O)O` (stereo partly shown) [Compound 5] belongs less than 100 nM.
